One assay addresses T1, human full length PDE3A (Homo sapiens, UniProt Q14432).
T1 construct: Sf9 cells overexpressing human full length PDE3A; purchased SB Drug Discovery, UK; host or cells: Sf9 cells (cell extract)
Description: PDE3A enzyme inhibition (3H-cAMP Scintillation Proximity Assay). It counts as biochemical. The conditions noted are these: PDE3A cell extract from Sf9 cells, 60 min room temperature; read-out: Target IC50 PDE3A IC50. The method, then: (§1) The commercially available 3H-cAMP Scintillation Proximity Assay (SPA, Perkin Elmer) system was used for enzyme inhibition studies. For the determination of the in vitro effect of test substances on the PDE3A reactions 2 μl of the respective test compound solution in DMSO (serial dilutions) were is placed in wells of microtiter plates (Isoplate-96/200W; Perkin Elmer). 50 μl of a dilution of PDE3A cell extract from Sf9 cells overexpressing human full length PDE3A (SB Drug Discovery, UK) in buffer A (50 mM Tris/HCl pH 7.5, 8.3 mM MgCl2, 1.7 mM EDTA, 0.2% BSA) was added. The dilution of the PDE3A cell extract was chosen such that the reaction kinetics was linear and less than 70% of the substrate was consumed (typical dilution 1:5000). The reaction was started by addition of 50 μl (0.025 μCi) of 1:2000 in buffer A w/o BSA diluted substrate [8-3H] adenosine 3′,5′-cyclic phosphate (1 μCi/μl; Perkin Elmer). After incubation at room temperature for 60 min, the reaction was stopped by addition of 25 μl of a suspension containing 18 mg/ml yttrium scintillation proximity beads (Perkin Elmer) in water. The microtiter plates were sealed and measured in a Microbeta scintillation counter (PerkinElmer Wallac). IC50 values were determined from sigmoidal curves by plotting percentage PDE3A activity vs log compound concentration.
On the technique in general: In a scintillation proximity assay essentially only radioactivity close to the scintillant gives light.

Another assay deals with SK-MEL-3 (melanoma). Kind of assay: Cell proliferation measurement (Cell Titer Glo), SK-MEL-3. It counts as cell-based. The conditions noted are these: Homo sapiens, SK-MEL3, SK-MEL-3 cells, 72 h treatment, read-out: Anti-proliferation IC50 SK-MEL-3 (melanoma). The method, then:
(§2) The antiproliferative activity of the compounds of the general formula (I) was examined in vitro in human cancer cells. For this purpose, 1000 cells (or 500 HeLa cells) were plated in 384-well plates with appropriate growth medium and incubated at 37° C. overnight. After 24 h, the cells on the test plate were treated with the compounds of the general formula (I) as and incubated at 37° C. for 72 h. The compounds were added to the cells by means of an HP D300 digital dispenser in a 10 (or more)-step dilution series. As control, the cells were treated with vehicle (DMSO at 0.3% final concentration). After 72 h, the cells were treated with 20 μl/well of 50% CTG solution in PBS (Promega Cell Titer Glo (catalogue #G755B and G756B)) and incubated at room temperature for 10 min, and luminescence was measured by means of a VICTOR V (Perkin Elmer), in order to determine cell viability at the end of treatment. The percentage effect on cell growth and the IC50 derived therefrom were determined for each test substance using the values from untreated wells (=percent viability). The IC50 values were calculated using a 4-parameter fit.
In general terms: Cellular ATP, detected with luciferase, serves as a proxy for viable cell number.

The subject of assay [1] is HeLa cells (cervical cancer). Kind of assay: Cell proliferation measurement (Cell Titer Glo), HeLa. It counts as cell-based. The conditions noted are these: Homo sapiens, 72 h treatment, read-out: Anti-proliferation IC50 HeLa (Cervical cancer). How it is done: as §2
In the next assay the target is T2, human full length PDE3B (Homo sapiens, UniProt Q13370).
T2 construct: Sf9 cells overexpressing human full length PDE3B; purchased SB Drug Discovery, UK; host or cells: Sf9 cells (cell extract)
T2 sequence (Q13370 whole entry): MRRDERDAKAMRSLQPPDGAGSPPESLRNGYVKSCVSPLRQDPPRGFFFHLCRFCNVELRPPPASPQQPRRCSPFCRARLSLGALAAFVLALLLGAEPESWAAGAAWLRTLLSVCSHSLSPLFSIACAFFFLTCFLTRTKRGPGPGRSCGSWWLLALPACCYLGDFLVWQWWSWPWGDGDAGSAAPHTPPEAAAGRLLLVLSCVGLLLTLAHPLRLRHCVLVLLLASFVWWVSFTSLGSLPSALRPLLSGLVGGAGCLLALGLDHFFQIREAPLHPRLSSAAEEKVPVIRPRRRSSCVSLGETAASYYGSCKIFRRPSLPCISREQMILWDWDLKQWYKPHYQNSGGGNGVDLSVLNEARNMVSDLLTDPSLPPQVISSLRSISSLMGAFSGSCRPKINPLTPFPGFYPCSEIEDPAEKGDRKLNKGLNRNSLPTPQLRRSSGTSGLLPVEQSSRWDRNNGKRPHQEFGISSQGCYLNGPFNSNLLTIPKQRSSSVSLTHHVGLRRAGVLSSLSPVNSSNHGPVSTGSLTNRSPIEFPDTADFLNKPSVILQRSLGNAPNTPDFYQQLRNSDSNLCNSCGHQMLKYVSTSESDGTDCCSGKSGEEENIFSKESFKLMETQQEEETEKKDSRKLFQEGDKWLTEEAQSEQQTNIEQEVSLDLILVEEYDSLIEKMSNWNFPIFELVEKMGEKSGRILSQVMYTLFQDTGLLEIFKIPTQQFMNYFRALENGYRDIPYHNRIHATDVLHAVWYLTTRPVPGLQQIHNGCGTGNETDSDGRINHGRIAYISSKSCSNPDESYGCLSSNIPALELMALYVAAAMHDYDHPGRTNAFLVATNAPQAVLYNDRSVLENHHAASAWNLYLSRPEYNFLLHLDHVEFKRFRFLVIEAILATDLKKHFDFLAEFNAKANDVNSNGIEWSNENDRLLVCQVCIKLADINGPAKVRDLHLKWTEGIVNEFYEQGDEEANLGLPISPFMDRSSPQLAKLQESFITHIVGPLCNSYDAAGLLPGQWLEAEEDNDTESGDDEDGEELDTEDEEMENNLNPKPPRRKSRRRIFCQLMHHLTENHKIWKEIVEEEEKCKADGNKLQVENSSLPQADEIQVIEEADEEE
Description: PDE3B enzyme inhibition (3H-cAMP Scintillation Proximity Assay). The conditions noted are these: PDE3B cell extract from Sf9 cells, 60 min room temperature; read-out: Target IC50 PDE3B IC50. It counts as biochemical. How it is done: as §1, with “PDE3B” for “PDE3A”, “were” for “were is”, “1:6000).” for “1:5000).”

Structures are written as SMILES. A value given as a limit tells only on which side of the number the result lay.

T1 sequence (Q14432 whole entry): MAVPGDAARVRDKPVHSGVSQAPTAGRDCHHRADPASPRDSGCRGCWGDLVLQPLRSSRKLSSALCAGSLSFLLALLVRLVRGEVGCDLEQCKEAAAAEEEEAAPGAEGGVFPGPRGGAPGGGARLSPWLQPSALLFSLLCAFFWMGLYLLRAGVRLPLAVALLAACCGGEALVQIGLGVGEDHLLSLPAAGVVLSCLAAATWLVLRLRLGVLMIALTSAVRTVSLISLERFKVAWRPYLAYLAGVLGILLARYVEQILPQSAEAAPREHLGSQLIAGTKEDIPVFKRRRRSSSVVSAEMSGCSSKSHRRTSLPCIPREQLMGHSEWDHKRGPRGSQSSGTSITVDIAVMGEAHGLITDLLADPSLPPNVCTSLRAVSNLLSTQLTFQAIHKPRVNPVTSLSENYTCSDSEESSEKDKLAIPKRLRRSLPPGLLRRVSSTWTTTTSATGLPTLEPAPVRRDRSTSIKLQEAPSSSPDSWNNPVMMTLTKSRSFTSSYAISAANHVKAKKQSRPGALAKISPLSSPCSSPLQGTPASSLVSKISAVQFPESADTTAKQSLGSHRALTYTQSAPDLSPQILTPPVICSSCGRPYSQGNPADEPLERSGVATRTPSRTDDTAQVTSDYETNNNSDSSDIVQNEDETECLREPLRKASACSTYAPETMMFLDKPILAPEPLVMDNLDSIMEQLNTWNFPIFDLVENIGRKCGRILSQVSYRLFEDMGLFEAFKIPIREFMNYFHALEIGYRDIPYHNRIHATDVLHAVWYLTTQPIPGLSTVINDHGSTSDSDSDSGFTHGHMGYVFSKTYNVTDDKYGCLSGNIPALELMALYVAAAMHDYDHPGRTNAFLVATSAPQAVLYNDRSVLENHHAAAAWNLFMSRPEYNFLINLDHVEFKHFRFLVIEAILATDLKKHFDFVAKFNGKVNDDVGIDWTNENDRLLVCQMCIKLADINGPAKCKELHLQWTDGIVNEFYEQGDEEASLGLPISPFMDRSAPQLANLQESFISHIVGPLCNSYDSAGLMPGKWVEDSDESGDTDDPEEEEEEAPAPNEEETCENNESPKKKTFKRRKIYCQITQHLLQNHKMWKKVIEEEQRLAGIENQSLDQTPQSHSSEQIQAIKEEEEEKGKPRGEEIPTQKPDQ

Take `O=C1CCC(c2ccc(N3CC(O)C3)c(C(F)(F)F)c2)=NN1` [Example 24, 6-[4-(3-Hydroxyazetidin-1-yl)-3-(trifluoromethyl)phenyl]-4,5-dihydropyridazin-3(2H)-one]: the IC50 is 350 nM at human full length PDE3A, 15 nM in the assay on SK-MEL-3 (melanoma), 9.97 nM in assay [1] and 300 nM on human full length PDE3B.

Turning to `O=C1CCC(c2ccc(N3CCOCC3)c(F)c2)=NN1` [Example 25, 6-[3-Fluoro-4-(morpholin-4-yl)phenyl]-4,5-dihydropyridazin-3(2H)-one], the IC50 came to 210 nM on human full length PDE3A, 19.9 nM with SK-MEL-3 (melanoma), 6.19 nM in assay [1] and 160 nM at human full length PDE3B.

Take `Cc1cc(F)ccc1-c1ccc(C2=NNC(=O)CC2)cc1` [Example 26, 6-(4′-Fluoro-2′-methylbiphenyl-4-yl)-4,5-dihydropyridazin-3(2H)-one]: the IC50 on human full length PDE3A was 93 nM; in the assay with SK-MEL-3 (melanoma), 3.6 nM; in assay [1], 2.02 nM; at human full length PDE3B it was 90 nM.

Consider `CC(C)=Cc1ccc(C2=NNC(=O)CC2)cc1F` [Example 27, 6-[3-Fluoro-4-(2-methylprop-1-en-1-yl)phenyl]-4,5-dihydropyridazin-3(2H)-one], for which the IC50 is 130 nM on human full length PDE3A, 6.1 nM with SK-MEL-3 (melanoma), 3.36 nM in assay [1] and 140 nM at human full length PDE3B.

On to `Nc1cc(-c2ccc(C3=NNC(=O)CC3)cc2F)ccn1` [Example 28, 6-[4-(2-aminopyridin-4-yl)-3-fluorophenyl]-4,5-dihydropyridazin-3(2H)-one], for which the IC50 at human full length PDE3A was 100 nM; in the assay on SK-MEL-3 (melanoma), > 100 nM; in assay [1], 60.2 nM; on human full length PDE3B, 89 nM.

Turning to `O=C1CCC(c2ccc(-c3cncc(C(F)(F)F)c3)c(F)c2)=NN1` [Example 29, 6-{3-fluoro-4-[5-(trifluoromethyl)pyridin-3-yl]phenyl}-4,5-dihydropyridazin-3(2H)-one], the IC50 is 160 nM on human full length PDE3A, > 100 nM with SK-MEL-3 (melanoma), 86.4 nM in assay [1] and 110 nM on human full length PDE3B.

In the case of `O=C1CCC(c2ccc(-c3ccncc3)c(F)c2)=NN1` [Example 30, 6-[3-fluoro-4-(pyridin-4-yl)phenyl]-4,5-dihydropyridazin-3(2H)-one], the IC50 at human full length PDE3A was 33 nM; in the assay on SK-MEL-3 (melanoma) it was 14.2 nM; in assay [1] it was 9.66 nM; on human full length PDE3B, 31 nM.

For `Cc1ncc(-c2ccc(C3=NNC(=O)CC3)cc2F)cn1` [Example 31, 6-[3-fluoro-4-(2-methylpyrimidin-5-yl)phenyl]-4,5-dihydropyridazin-3(2H)-one], the IC50 on human full length PDE3A was 160 nM; in the assay on SK-MEL-3 (melanoma), 47.3 nM; in assay [1], 34.4 nM; at human full length PDE3B, 93 nM.

For the compound `COc1cc(-c2ccc(C3=NNC(=O)CC3)cc2F)ccn1` [Example 32, 6-[3-fluoro-4-(2-methoxypyridin-4-yl)phenyl]-4,5-dihydropyridazin-3(2H)-one], the IC50 at human full length PDE3A was found to be 64 nM; in the assay on SK-MEL-3 (melanoma), 64.7 nM; in assay [1], 59.9 nM; on human full length PDE3B, 36 nM.

Turning to `Cc1ncccc1-c1ccc(C2=NNC(=O)CC2)cc1F` [Example 33, 6-[3-fluoro-4-(2-methylpyridin-3-yl)phenyl]-4,5-dihydropyridazin-3(2H)-one], the IC50 came to 66 nM on human full length PDE3A, 24.8 nM with SK-MEL-3 (melanoma), 14.4 nM in assay [1] and 67 nM on human full length PDE3B.

`Cc1ccc(-c2ccc(C3=NNC(=O)CC3)cc2F)cn1` [Example 34, 6-[3-fluoro-4-(6-methylpyridin-3-yl)phenyl]-4,5-dihydropyridazin-3(2H)-one]: the IC50 at human full length PDE3A stood at 57 nM; in the assay with SK-MEL-3 (melanoma), 9.88 nM; in assay [1] it was 7.23 nM; at human full length PDE3B, 50 nM.

On to `Cc1ccc(-c2ccc(C3=NNC(=O)CC3)cc2F)cc1C` [Example 35, 6-(2-fluoro-3′,4′-dimethyl[1,1′-biphenyl]-4-yl)-4,5-dihydropyridazin-3(2H)-one], for which the IC50 is 820 nM on human full length PDE3A, > 100 nM in the assay on SK-MEL-3 (melanoma), 63.6 nM in assay [1] and 690 nM at human full length PDE3B.

With `C/C=C(\C)c1ccc(C2=NNC(=O)CC2)cc1F` [Example 36, 6-{4-[(2E)-but-2-en-2-yl]-3-fluorophenyl}-4,5-dihydropyridazin-3(2H)-one], the IC50 at human full length PDE3A came out at 420 nM; with SK-MEL-3 (melanoma), 14.3 nM; in assay [1], 8.33 nM; at human full length PDE3B, 390 nM.

For the compound `Cc1ccc(-c2ccc(C3=NNC(=O)CC3)cc2F)c(F)c1` [Example 37, 6-(2,2′-difluoro-4′-methyl[1,1′-biphenyl]-4-yl)-4,5-dihydropyridazin-3(2H)-one], the IC50 at human full length PDE3A was found to be 130 nM; with SK-MEL-3 (melanoma) it was 7.31 nM; in assay [1], 4 nM; at human full length PDE3B, 100 nM.

Consider `O=C1CCC(c2ccc(-c3cc(F)c(F)cc3F)c(F)c2)=NN1` [Example 38, 6-(2,2′,4′,5′-tetrafluoro[1,1′-biphenyl]-4-yl)-4,5-dihydropyridazin-3(2H)-one], for which the IC50 came to 100 nM at human full length PDE3A, 11.1 nM in the assay with SK-MEL-3 (melanoma), 5.59 nM in assay [1] and 100 nM on human full length PDE3B.

In the case of `O=C1CCC(c2ccc(-c3ccc(F)c(F)c3F)c(F)c2)=NN1` [Example 39, 6-(2,2′,3′,4′-tetrafluoro[1,1′-biphenyl]-4-yl)-4,5-dihydropyridazin-3(2H)-one], the IC50 at human full length PDE3A turned out to be 82 nM; in the assay with SK-MEL-3 (melanoma), 8.4 nM; in assay [1] it was 5.25 nM; on human full length PDE3B, 80 nM.

In the case of `O=C1CCC(c2ccc(-c3cncnc3)c(F)c2)=NN1` [Example 40, 6-[3-fluoro-4-(pyrimidin-5-yl)phenyl]-4,5-dihydropyridazin-3(2H)-one], the IC50 on human full length PDE3A was 140 nM; with SK-MEL-3 (melanoma) it was 47.6 nM; in assay [1], 37.5 nM; on human full length PDE3B, 140 nM.

On to `COc1ccc(OC)c(-c2ccc(C3=NNC(=O)CC3)cc2F)c1` [Example 41, 6-(2-fluoro-2′,5′-dimethoxy[1,1′-biphenyl]-4-yl)-4,5-dihydropyridazin-3(2H)-one], for which the IC50 is 150 nM at human full length PDE3A, 68.8 nM in the assay with SK-MEL-3 (melanoma), 51.6 nM in assay [1] and 100 nM on human full length PDE3B.

For the compound `O=C1CCC(c2ccc(-c3cc(F)ccc3F)c(F)c2)=NN1` [Example 42, 6-(2,2′,5′-trifluoro[1,1′-biphenyl]-4-yl)-4,5-dihydropyridazin-3(2H)-one], the IC50 at human full length PDE3A amounted to 80 nM; in the assay with SK-MEL-3 (melanoma), 8.4 nM; in assay [1] it was 5.23 nM; at human full length PDE3B, 68 nM.

Take `Nc1ccc(F)cc1-c1ccc(C2=NNC(=O)CC2)cc1F` [Example 43, 6-(2′-amino-2,5′-difluoro[1,1′-biphenyl]-4-yl)-4,5-dihydropyridazin-3(2H)-one]: the IC50 on human full length PDE3A turned out to be 110 nM; in the assay with SK-MEL-3 (melanoma), 26.3 nM; in assay [1], 15.3 nM; on human full length PDE3B, 110 nM.
